Results published in US20140349955A1, “USE OF FLUORINE-CONTAINING WATER SOLUBLE PLATINUM COMPLEX IN PREPARING DRUGS FOR PREVENTION AND TREATMENT OF CANCERS” (GUDUI BIOPHARMA TECHNOLOGY INC., priority 2011, published 2014).

Assays:
A549 [1] = assay: MTS cytotoxicity test, A549; type: cell-based; conditions: 96 h, read-out: IC50 value in human tumor cells
Method: (§1) Containing 10% bovine fetal serum, 1 mM of sodium pyruvate, 2 mM of L-glutamine, 50 U/mL of penicillin, 50 μg/mL of streptomycin
(§2) Human tumor cells: dul45-human prostate cancer; MCF-7-human breast cancer; SK0V3-human ovarian carcinoma, HT-29-human colon cancer; A549-human non-small cell lung cancer (adenocarcinoma), H460-human non-small cell lung cancer (large cell carcinoma), and animal tumor cells: L1210-mice leukemia cells used in the following activity test experiments were all purchased from Shanghai An Yan Commercial Trade Co., Ltd.
(§3) MTS test method was used in cytotoxicity assay. The tumor cells of logarithmic phase were collected, and then the concentration of cell suspension was adjusted, 100 μL of the cell suspension was added to each well, the cells were placed at 1000-10000 cells/well (edge well filled with sterile PBS). Cells were incubated at 37° C. with 5% CO2 to make cell monolayer overspread the bottom of each well (96-well flat-bottomed microplate). 100 μL of different concentrations of the test compounds was added to each well. Each condition was measured in five replicates. The microplate was incubated at 37° C. with 5% CO2 for 96 h and checked with inverted microscope. MTS working reagent: To 2 mL of MTS (2 mg/mL, prepared by DPBS) was added 100 μL of PMS (1 mg/mL, prepared by DPBS). The cell culture medium was discarded after centrifugation, the cell culture plate was carefully washed 2-3 times with PBS. Before detecting the absorbance value (OD), to each sample containing well was added 100 μL of cell culture medium, then 20 μL of MTS working reagent was added. After incubation at 37° C. with 5% CO2 for 2 h, the OD (optical density) value was detected at 490 nm.
(§4) Control group: the conditions are the same as the above without adding the active ingredient of antitumor agents, and the OD value was detected at 490 nm on the end of the experiment.
(§5) The cell inhibiting rate of the drugs to tumor cell growth was calculated according to the following formula:
(§6) 1) Cell viability (%)=OD of treated group/OD of control group×100%
(§7) 2) The cell viabilities under the different drug concentrations were determined, and then plotted against drug concentration. The IC50 value is the corresponding concentration in the obtained curve when the cell viability was 50%.

SKOV3 = assay: MTS cytotoxicity test, SKOV3; type: cell-based; conditions: 96 h, read-out: IC50 value in human tumor cells
Method: as §1, §2, §3, §4, §5, §6, §7

MCF7 [2] = assay: MTS cytotoxicity test, MCF7; type: cell-based; conditions: 96 h, read-out: IC50 value in human tumor cells
Method: as §1, §2, §3, §4, §5, §6, §7

HT29 [3] = assay: MTS cytotoxicity test, HT29; type: cell-based; conditions: 96 h, read-out: IC50 value in human tumor cells
Method: as §1, §2, §3, §4, §5, §6, §7

DU145 [4] = assay: MTS cytotoxicity test, DU145; type: cell-based; conditions: 96 h, read-out: IC50 value in human tumor cells
Method: as §1, §2, §3, §4, §5, §6, §7

H460 [5] = assay: MTS cytotoxicity test, H460; type: cell-based; conditions: 96 h, read-out: IC50 value in human tumor cells
Method: as §1, §2, §3, §4, §5, §6, §7

A549 [6] = assay: Synergistic cytotoxicity test (MTS), A549; type: cell-based, human; conditions: 96 h
Method: (§8) Containing 10% bovine fetal serum, 1 mM of sodium pyruvate, 2 mM of L-glutamine, 50 U/mL of penicillin, 50 μg/ mL of streptomycin.
as §2, with “du145-human” for “dul45-human”
as §3, with “certain concentration solution of a mixture” for “different concentrations”, “fluorine-containing water-soluble platinum complex with other antitumor agents” for “test compounds”
(§9) Each of above experiment was repeated five times, and the cell viability was calculated according to the mean OD values.
(§10) Cell Viability (%)=(treated group OD value/control group OD value)×100
(§11) Control group: the conditions are the same as the above without adding the tested drug mixture (100 μL of culture medium was added in stead), and finally the absorbance was measured at 490 nm to obtain the OD value of the tumor cells.
(§12) Drug Group-1: only the fluorine-containing water-soluble platinum complex was added under the above conditions to obtain cell viability of tumor cells.
(§13) Drug Group-2: only the other chemotherapeutic drug (active ingredient) was added under the above conditions to obtain cell viability of tumor cells.
(§14) Drug Combination Group: the fluorine-containing water-soluble platinum complex and other chemotherapeutic drugs were added simultaneously under the above conditions to obtain cell viability of tumor cell. (2) Evaluation Method:
(§15) When the fluorine-containing water-soluble platinum complexes used in combination with other chemotherapy drugs, the inhibition effect on cancer cell proliferation is enhanced or synergistic, and the effect was calculated using the following formula:
(§16) Combination Effect (%)={[(A1-X)+(A2-X)]/(A1-A2)|}×100
(§17) wherein, A1 is the cell viability of drug group-1, A2 is the cell viability of drug group-2, X is the cell viability of drug combination group, (A1-A2)| is the absolute value of the cell viability difference between the two groups.
(§18) Calculated according to the above formula, when the results of [Combination Effect (%)]>+100%, that means the effect of inhibition on cell proliferation is enhanced or synergistic (3) Experimental Result: […]

SK0V3 = assay: Synergistic cytotoxicity test (MTS), SKOV3; type: cell-based, human; conditions: 96 h
Method: as §8
as §2, with “du145-human” for “dul45-human”
as §3, with “certain concentration solution of a mixture” for “different concentrations”, “fluorine-containing water-soluble platinum complex with other antitumor agents” for “test compounds”
as §9, §10, §11, §12, §13, §14, §15, §16, §17, §18

MCF7 [7] = assay: Synergistic cytotoxicity test (MTS), MCF7; type: cell-based, human; conditions: 96 h
Method: as §8
as §2, with “du145-human” for “dul45-human”
as §3, with “certain concentration solution of a mixture” for “different concentrations”, “fluorine-containing water-soluble platinum complex with other antitumor agents” for “test compounds”
as §9, §10, §11, §12, §13, §14, §15, §16, §17, §18

HT29 [8] = assay: Synergistic cytotoxicity test (MTS), HT29; type: cell-based, human; conditions: 96 h
Method: as §8
as §2, with “du145-human” for “dul45-human”
as §3, with “certain concentration solution of a mixture” for “different concentrations”, “fluorine-containing water-soluble platinum complex with other antitumor agents” for “test compounds”
as §9, §10, §11, §12, §13, §14, §15, §16, §17, §18

DU145 [9] = assay: Synergistic cytotoxicity test (MTS), DU145; type: cell-based, human; conditions: 96 h
Method: as §8
as §2, with “du145-human” for “dul45-human”
as §3, with “certain concentration solution of a mixture” for “different concentrations”, “fluorine-containing water-soluble platinum complex with other antitumor agents” for “test compounds”
as §9, §10, §11, §12, §13, §14, §15, §16, §17, §18

H460 [10] = assay: Synergistic cytotoxicity test (MTS), H460; type: cell-based, human; conditions: 96 h
Method: as §8
as §2, with “du145-human” for “dul45-human”
as §3, with “certain concentration solution of a mixture” for “different concentrations”, “fluorine-containing water-soluble platinum complex with other antitumor agents” for “test compounds”
as §9, §10, §11, §12, §13, §14, §15, §16, §17, §18

[11] = other chemotherapy drug (at its listed dosage) combined with Complex 2 (dosage: 1 μM)
[12] = other chemotherapy drug (at its listed dosage) combined with Complex 3 (dosage: 1 μM)
[13] = other chemotherapy drug (at its listed dosage) combined with Complex 5 (dosage: 1 μM)
[14] = other chemotherapy drug (at its listed dosage) combined with Complex 6 (dosage: 1 μM)

SMILES: O=C1[O][Pt]2([NH][C@@H]3CCCC[C@H]3[NH]2)[O]C(=O)C1(F)CCCOC1O[C@H](CO)[C@@H](O)[C@H](O)[C@H]1O (some centres unmarked) [Complex 3]
- IC50 (A549 [1]): 855 nM
- IC50 (SKOV3): 10100 nM
- IC50 (MCF7 [2]): 923 nM
- IC50 (HT29 [3]): 2010 nM
- IC50 (DU145 [4]): 6600 nM
- IC50 (H460 [5]): 10100 nM

SMILES: CCCCCOC(=O)Nc1nc(=O)n([C@@H]2O[C@H](C)[C@@H](O)[C@H]2O)cc1F [Capecitabine]
- the effect of drug combination (Combination Effect) (A549 [6]; [11]): ○ (○ represents: 100% < the effect of drug combination < 300%)
- the effect of drug combination (Combination Effect) (A549 [6]; [12]): ○ (○ represents: 100% < the effect of drug combination < 300%)
- the effect of drug combination (Combination Effect) (SK0V3; other chemotherapy drug (at its listed dosage) combined with Complex 2 (dosage: 1 μM), SLOV3): ○ (○ represents: 100% < the effect of drug combination < 300%)
- the effect of drug combination (Combination Effect) (SK0V3; other chemotherapy drug (at its listed dosage) combined with Complex 3 (dosage: 1 μM), SlOV3): ○ (○ represents: 100% < the effect of drug combination < 300%)
- the effect of drug combination (Combination Effect) (SK0V3; other chemotherapy drug (at its listed dosage) combined with Complex 5 (dosage: 1 μM), SLOV3): ○ (○ represents: 100% < the effect of drug combination < 300%)
- the effect of drug combination (Combination Effect) (SK0V3; other chemotherapy drug (at its listed dosage) combined with Complex 6 (dosage: 1 μM), SLOV3): ○ (○ represents: 100% < the effect of drug combination < 300%)
- the effect of drug combination (Combination Effect) (MCF7 [7]; [11]): ⊚ (⊚ represents the effect of drug combination > 300%)
- the effect of drug combination (Combination Effect) (MCF7 [7]; [12]): ⊚ (⊚ represents the effect of drug combination > 300%)
- the effect of drug combination (Combination Effect) (MCF7 [7]; [13]): ⊚ (⊚ represents the effect of drug combination > 300%)
- the effect of drug combination (Combination Effect) (MCF7 [7]; [14]): ⊚ (⊚ represents the effect of drug combination > 300%)
- the effect of drug combination (Combination Effect) (HT29 [8]; [11]): ⊚ (⊚ represents the effect of drug combination > 300%)
- the effect of drug combination (Combination Effect) (HT29 [8]; [12]): ○ (○ represents: 100% < the effect of drug combination < 300%)
- the effect of drug combination (Combination Effect) (HT29 [8]; [13]): ○ (○ represents: 100% < the effect of drug combination < 300%)
- the effect of drug combination (Combination Effect) (HT29 [8]; [14]): ○ (○ represents: 100% < the effect of drug combination < 300%)
- the effect of drug combination (Combination Effect) (DU145 [9]; [11]): ○ (○ represents: 100% < the effect of drug combination < 300%)
- the effect of drug combination (Combination Effect) (DU145 [9]; [12]): ○ (○ represents: 100% < the effect of drug combination < 300%)
- the effect of drug combination (Combination Effect) (DU145 [9]; [13]): ○ (○ represents: 100% < the effect of drug combination < 300%)
- the effect of drug combination (Combination Effect) (DU145 [9]; [14]): ○ (○ represents: 100% < the effect of drug combination < 300%)
- the effect of drug combination (Combination Effect) (H460 [10]; [13]): ○ (○ represents: 100% < the effect of drug combination < 300%)
- the effect of drug combination (Combination Effect) (H460 [10]; [14]): ○ (○ represents: 100% < the effect of drug combination < 300%)

SMILES: O=C1[O][Pt]2([NH]C3CCCCC3[NH]2)[O]C(=O)C1(F)CCCOC1OC(CO)C(O)C(O)C1O (centres unmarked) [Complex 6]
- IC50 (A549 [1]): 21800 nM
- IC50 (SKOV3): 22200 nM
- IC50 (MCF7 [2]): 2040 nM
- IC50 (HT29 [3]): 2300 nM
- IC50 (DU145 [4]): 9960 nM
- IC50 (H460 [5]): 22400 nM

SMILES: O=C1[O][Pt]2([NH]C3CCCCC3[NH]2)[O]C(=O)C1(F)CCOC1OC(CO)C(O)C(O)C1O (centres unmarked) [Complex 5]
- IC50 (A549 [1]): 653 nM
- IC50 (SKOV3): 2220 nM
- IC50 (MCF7 [2]): 411 nM
- IC50 (HT29 [3]): 2160 nM
- IC50 (DU145 [4]): 2600 nM
- IC50 (H460 [5]): 10200 nM
